A short description of data set [1]: Critical micelle concentration by tensiometer. Format: physicochemical. As to conditions: surface tension by tensiometer at room temperature, 0.1 to 1000 μg/ml, mean of triplicate experiments. How it is done:
Collapse Drop Assay (CDA) was performed as mentioned earlier ([Sharma et al., 2020]). To a well of 96 well microtiter plate, 2 μl mineral oil was added and equilibrated at 37°C for 24 h. Purified lipopeptide (5 μl of 10 μg/ml stock) was applied to the top of oil droplet and its shape was observed after 1 min with a magnifying glass for collapse and spread due to reduction in surface tension. Water and triton X-100 served as controls ([Youssef et al., 2004]). To determine critical micelle concentration (CMC), different concentrations of purified lipopeptides were prepared and surface tension was measured on a tensiometer (KRUSS K10T, Germany) at room temperature. The values for CMC were estimated by plotting surface tension as a function of concentration of lipopeptides. A point of intersection was located between the pre and post CMC data plot. The mean value of triplicate experiments was used to increase the accuracy. Concentrations ranging from 0.1 to 1000 μg/ml were used to determine surface tension on a tensiometer.

For another data set, the system named is S. aureus MTCC 1430. Format: cell-based, Staphylococcus aureus. The conditions noted are these: MTCC 1430, 24 h. How it is done: (§1) The antimicrobial activity of HPLC purified compounds was determined against various test strains including S. aureus MTCC 1430, Vibrio cholera MTCC 3904, Bacillus subtilis MTCC 121, Listeria monocytogenes MTCC 839, C. albicans MTCC 183, C. albicans MTCC 1637, C. albicans MTCC 227, C. tropicalis MTCC 184, C. glabrata MTCC 3019, and C. inconspicua MTCC 1074. Antimicrobial activity was also tested against clinical Candida strains and phytopathogenic fungi viz. Fusarium moniliforme MTCC 158, Alternaria brassicicola MTCC 2102 and Colletotrichum acutatum MTCC 1037. Bacterial and Candida test strains were grown in NB and yeast malt broth (YMB), respectively. Fungal test strains were grown in potato dextrose broth (PDB). Minimum inhibitory concentrations (MICs) of purified compounds were evaluated against test organisms by using a microtiter plate dilution assay. Mid-log-phase test strains (5 × 10^5 CFU/ml) were incubated in a 96-well plate with different concentrations of the lipopeptides for 24–48 h at 37°C (final volume of 200 μl). OD was measured at 600 nm after 24 and 48 h for bacteria and yeast, respectively, using an ELISA microplate reader (Thermo Scientific, United States). MIC against phytopathogenic fungi was determined using the 96-well microtiter plate method ([Sharma et al., 2020]).

The subject of another data set is F. moniliforme MTCC 158. Kind of data set: MIC against phytopathogenic fungi, 96-well microtiter plate method. Type of data set: cell-based, Fusarium moniliforme. The conditions noted are these: PDB. The method, then:
as §1

Data set [2] deals with A. brassicicola MTCC 2102. The data set is described as above. Type of data set: cell-based, Alternaria brassicicola. The conditions noted are these: PDB. The method, then:
as §1

For a further data set, the system named is C. inconspicua MTCC 1074. Put plainly: MIC, microtiter plate dilution assay. Format: cell-based. The conditions noted are these: YMB, 5 × 10^5 CFU/ml, 37°C, OD 600 nm after 48 h. The method, then:
as §1

The test system of another data set is C. acutatum MTCC1037. Put plainly: MIC against phytopathogenic fungi, 96-well microtiter plate method. Type of data set: cell-based, Colletotrichum acutatum. The conditions noted are these: PDB. How it is done:
as §1

The next data set relates to C. albicans MTCC 227. Kind of data set: MIC, microtiter plate dilution assay. Type of data set: cell-based, Candida albicans. The conditions noted are these: YMB, 5 × 10^5 CFU/ml, 37°C, OD 600 nm after 48 h. How it is done:
as §1

The next data set has as its system C. albicans MTCC 1637. Kind of data set: MIC, microtiter plate dilution assay. Type of data set: cell-based, Candida albicans. The conditions noted are these: YMB, 5 × 10^5 CFU/ml, 37°C, OD 600 nm after 48 h. How it is done:
as §1

The test system of a further data set is C. albicans 400054. Kind of data set: MIC, microtiter plate dilution assay, clinical strain. The conditions noted are these: YMB, 37°C, OD 600 nm after 48 h. Type of data set: cell-based, Candida albicans. The method, then: (§2) Brevibacillus sp. strains GI-9 and SKDU10 were known to produce class IId bacteriocins identified as laterosporulins a ([Singh et al., 2012]; [Baindara et al., 2016]). Both strains were grown on nutrient agar (NA, Himedia, India). All test strains used in this study were obtained from Microbial Type Culture Collection and Gene bank (MTCC), Chandigarh, India. Clinical Candida strains were obtained from the National Culture Collection of Pathogenic Fungi (NCCPF), PGIMER, Chandigarh, India, and all strains were grown on recommended media.
as §1

The subject of the next data set is C. rugosa 470141. The description is as above. Type of data set: cell-based. The conditions noted are these: YMB, 37°C, OD 600 nm after 48 h. How it is done: as §2, §1
The subject of a further data set is C. krusei 440009. Described as above. Type of data set: cell-based. The conditions noted are these: YMB, 37°C, OD 600 nm after 48 h. The method, then:
as §2, §1

Another data set concerns C. parapsilosis 450030. Described as above. Format: cell-based. As to conditions: YMB, 37°C, OD 600 nm after 48 h. The method, then: as §2, §1
The test system of another data set is C. albicans MTCC 183. Kind of data set: MIC, microtiter plate dilution assay. Format: cell-based, Candida albicans. As to conditions: YMB, 5 × 10^5 CFU/ml, 37°C, OD 600 nm after 48 h. The method, then:
as §1

A further data set has as its system C. tropicalis MTCC 184. Kind of data set: MIC, microtiter plate dilution assay. Format: cell-based. As to conditions: YMB, 5 × 10^5 CFU/ml, 37°C, OD 600 nm after 48 h. The method, then: as §1
Another data set relates to C. glabrata MTCC 3019. Put plainly: MIC, microtiter plate dilution assay. Type of data set: cell-based. As to conditions: YMB, 5 × 10^5 CFU/ml, 37°C, OD 600 nm after 48 h. How it is done: as §1
A further data set concerns C. haemulonii MTCC 2766. Put plainly: MIC, microtiter plate dilution assay. Format: cell-based. As to conditions: YMB, 5 × 10^5 CFU/ml, 37°C, OD 600 nm after 48 h. How it is done: as §1
A further data set concerns C. haemulonii 470125. Kind of data set: MIC, microtiter plate dilution assay, clinical strain. Type of data set: cell-based. As to conditions: YMB, 37°C, OD 600 nm after 48 h. How it is done: as §2, §1
The next data set has as its system C. kefyr 410004. The description is as above. As to conditions: YMB, 37°C, OD 600 nm after 48 h. Format: cell-based. How it is done:
as §2, §1

For a further data set, the system named is C. auris 470126. The description is as above. Format: cell-based. The conditions noted are these: YMB, 37°C, OD 600 nm after 48 h. How it is done: as §2, §1
A further data set has as its system C. tropicalis 420024. Described as above. Format: cell-based. The conditions noted are these: YMB, 37°C, OD 600 nm after 48 h. How it is done: as §2, §1

Peptide text beside a SMILES is read from it. * marks the point of attachment. X1 = CC(C)CCCCCCCCCCCCC(=O)*

With `CC(C)CCCCCCCCCCCCC(=O)N[C@H](C(=O)NCC(=O)N[C@@H](C)C(=O)N[C@@H](CO)C(=O)N[C@@H](Cc1c[nH]cn1)C(=O)N[C@@H](CCC(N)=O)C(=O)N[C@@H](CCC(N)=O)C(=O)O)[C@@H](C)O` [ILL] (X1-TGASHQQ-OH; N-terminus assumed), the “CMC (critical micelle concentration)” value in data set [1] was 90 µg/mL. This compound also returned an MIC value with S. aureus MTCC 1430 of 150 to 170 µg/mL.
For the compound “Dhb-Tyr-Orn-Ile-Val-Val-Lys-Val-Leu-Asp-Val-Glu [BLL, bogorol like lipopeptide purified from Brevibacillus sp. strain SKDU10; 12 amino acids and C17 hydroxy fatty acid side chain]”, the MIC value fell in the range of 490 to 510 µg/mL against F. moniliforme MTCC 158; 500 to 520 µg/mL in data set [2]; 100 to 110 µg/mL in the data set on C. inconspicua MTCC 1074; 430 to 450 µg/mL in the data set on C. acutatum MTCC1037; 300 to 310 µg/mL in the data set on C. albicans MTCC 227; 250 to 260 µg/mL against C. albicans MTCC 1637. Moreover, the MIC value against C. albicans 400054 was 240 to 260 µg/mL; with C. rugosa 470141, 240 to 250 µg/mL; in the data set on C. krusei 440009, 240 to 250 µg/mL; against C. parapsilosis 450030, 290 to 310 µg/mL; in the data set with C. albicans MTCC 183 it was 150 to 170 µg/mL; in the data set on C. tropicalis MTCC 184, 290 to 310 µg/mL. In addition, the MIC value fell in the range of 290 to 300 µg/mL in the data set on C. glabrata MTCC 3019; 340 to 360 µg/mL with C. haemulonii MTCC 2766; 245 to 255 µg/mL against C. haemulonii 470125; 190 to 210 µg/mL with C. kefyr 410004; 140 to 160 µg/mL against C. auris 470126; 300 to 320 µg/mL in the data set with C. tropicalis 420024. For the same compound, the “CMC (critical micelle concentration)” value in [1] is 110 µg/mL.
